Data from patent US20170314056A1, “METHOD OF USING NEAR INFRARED FLUORESCENT DYES FOR IMAGING AND TARGETING CANCERS” (priority 2010, published 2017).
“Also recorded” adds a separate entry of the source.

Columns and labels:
ARCaPM cells [1] = experiment: Live-cell kinetics of dye uptake in prostate cancer cells; assay type: cell-based, human; conditions: for uptake of dye in ARCaPM cells compared with normal P69 cells: 20 μM dye, live-cell spinning disc confocal
Description: ARCaPM Cells were plated on live-cell imaging chambers from World Precision Instrument (Sarasota, Fla.) overnight. Cells were treated with IR-780 with different concentrations and were imaged using a Perkin-Elmer Ultraview ERS spinning discconfocal microscope. This system was mounted on a Zeiss Axiovert 200m inverted microscope equipped with a 37° C. stage warmer, incubator, and CO2 perfusion. A x63 or x100 Zeiss oil objective (numerical aperture, 1.4) was used for all images and a Z-stack was created using the attached piezo electric z-stepper motor. The 633 nm laser line of an argon ion laser (set at 60% power) was used to excite the IR-780 organic dye. For each comparison, the exposure time and laser intensity was kept identical for accurate intensity measurement. Pixel intensity was quantitated using Metamorph 6.1 (Universal Imaging, Downingtown, Pa.) and the mean pixel intensity was generated as grey level using the Region Statistics feature on the software.
(§1) Cells were plated on live-cell imaging chambers (World Precision Instrument, Sarasota, Fla.) overnight. Cells were exposed to cyanine dyes at different concentrations and dye uptake was evaluated by a Perkin-Elmer Ultraview ERS spinning disc confocal microscope. This system was mounted on a Zeiss Axiovert 200m inverted microscope equipped with a 37° C. stage warmer, incubator, and constant CO2 perfusion. A 63× or 100× Zeiss oil objective (numerical aperture, 1.4) was used for live cell images and a Z-stack was created using the attached piezoelectric z-stepper motor. The 633 nm laser line of an argon ion laser (set at 60% power) was used to excite the cyanine dyes. […] For comparative studies, the exposure time and laser intensity were kept identical for accurate intensity measurements. Pixel intensity was quantified using Metamorph 6.1 (Universal Imaging, Downingtown, Pa.) and the mean pixel intensity was generated as grey level using the Region Statistics feature on the software (23). To determine the dye uptake by the mitochondria, the mitochondrial tracking dye Mito Tracker Orange CMTMROS (Molecular Probes, Carlsbad, Calif.) was used. To determine the dye localization in lysosomes, a lysosome tracking dye, Lyso Tracker Green DND-26 (Molecular Probes, Carlsbad, Calif.), was selected. Imaging of mitochondrial and/or lysosome localization of the cyanine dye was conducted under confocal microscopy (24).
To determine if the cyanine dye uptake and accumulation in cancer cells was dependent upon OATPs, cells were preincubated with 250 μM bromosulfophthalein (BSP), a competitive inhibitor of organic anion transporting peptides (OATPs) (25), for 5 minutes prior to incubating the cells with cyanine dyes. The uptake and accumulation of cyanine dyes in the presence and absence of BSP were conducted in the stage warmer incubator for a period of 35 minutes. The levels of cyanine dye taken up and accumulated in normal prostate (P69) and prostate cancer (ARCaPM) cells were determined and compared on a real-time basis.

normal human cells = experiment: Uptake of NIR dyes by cultured normal human cells; assay type: cell-based; conditions: HS-27A/BMC, NPE, NPF, HUVEC-CS, HEK293; 20 μM dye, 30 min
Description: Cells (1×10^4/well) were seeded on vitronectin-coated four-well chamber slides (Nalgen Nunc, Naperville, Ill.) and incubated with T-medium containing 5% FBS for 24 h. After the cells had attached to the chamber slides, the cells were washed with PBS (Phosphate Buffered Saline) and exposed to the cyanine dye at a concentration of 20 μM in T-medium. The slides were incubated at 37° C. for 30 min, washed twice with PBS to remove excess dyes, and cells were fixed with 10% formaldehyde at 4° C. The slides were then washed twice with PBS and covered with glass coverslips with an aqueous mounting medium (Sigma-Aldrich, St. Louis, Mo.). Images were recorded by confocal laser microscopy (Zeiss LSM 510 META, Germany) using a 633 nm excitation laser and 670-810 nm long pass filter, or a fluorescence microscope (Olympus 1×71; Olympus, Melville, N.Y.) equipped with a 75 W Xenon lamp and an Indo-Cyanine Green filter cube (excitation 750-800 nm; emission 820-860 nm) (Chroma, Rockingham, Vt.).
Cells (1×10^4/well) were seeded on vitronectin-coated four-well chamber slides (Nalgen Nunc, Naperville, Ill.) and incubated with T-medium containing 5% FBS for 24 h. After the cells had attached to the chamber slides, the cells were washed with PBS (Phosphate Buffered Saline) and exposed to the cyanine dye at a concentration of 20 μM in medium. The slides were incubated at 37° C. for 30 min, washed twice with PBS to remove excess dyes, and fixed with 10% formaldehyde at 4° C. The slides were then washed twice with PBS and covered with glass coverslips with aqueous mounting medium (Sigma-Aldrich, St. Louis, Mo.). Images were recorded by confocal laser microscopy (Zeiss LSM 510 META, Germany) equipped with 633 nm excitation laser and 670-810 nm long pass filter.

ARCaPM cells [2] = experiment: Subcellular co-localization with mitochondria and lysosome tracking dyes; assay type: cell-based, human; conditions: Mito Tracker and Lyso Tracker co-staining
Description: as §1, with “Imaging of mitochondrial and/or lysosome localization of the cyanine dye was conducted under confocal microscopy (24).” left out

Apc^Min/+ mouse adenoma = experiment: Detection of intestinal neoplasia in Apc^Min/+ mice; assay type: in vivo; conditions: IR-783 i.p. 10 nmol/20 g
Description: (§2) The uptake of cyanine dyes by the TRAMP mouse prostate model and the Apc^Min/+ mouse-adenoma model (obtained from The Jackson Laboratory, Bar Harbor, Me.) was assessed by a similar protocol as described above. We also utilized the Olympus OV100 imaging system to detect adenoma in the Apc^Min/+ mouse model. In brief, mice were injected intraperitoneally with IR-783 dye at a dose of 10 nmol/20 g body weight and animals were subjected to total body cyanine dye imaging as described above. Animals were sacrificed at 48 hrs after dye administration and tumors were dissected and subjected to NIR imaging. The presence of tumor cells in tissue specimens was confirmed by histopathologic analysis.

ARCaPM cells [3] = experiment: Detection of prostate cancer cells in human blood; assay type: cell-based
Description: An experimental model of evaluating human prostate cancer cells in blood was developed. In brief, heparinized whole blood from human volunteers was collected according to an Emory University approved IRB protocol. A known number of human prostate cancer cells (10-1,000) were added to 1 ml of whole blood, mixed gently with 20 μM IR-783 and incubated for 30 minutes at 37° C. The mononuclear cells and cancer cells were recovered by gradient centrifugation using Histopaque-1077 (Sigma, St. Louis, Mo.). The isolated live cells were observed under a confocal fluorescence microscope.

[4] = Systemic toxicity of IR-783 in C57BL/6 mice; assay type: in vivo, mouse; conditions: normal C57BL/6 mice
Description: The systemic toxicity of IR-783 was investigated in C57BL/6 mice (National Cancer Institute, Frederick, Md.) by injecting the dye by an i.p. route. The mice (N=8 per group) were subdivided into 4 groups and received PBS as control and IR-783 i.p. injection daily at the following doses: 0.375 mg/kg (imaging dose), 3.75 mg/kg and 37.5 mg/kg. […] The histomorphologic appearance of their vital organs was assessed at the time of sacrifice.

human bladder tumors = experiment: Uptake in freshly harvested human bladder tumor specimens; assay type: cell-based
Excerpt: The inventors determined the ability of IR-783 as an imaging agent for freshly harvested human renal and bladder cancer specimens. […] Fresh tumor xenografts grown in mice (FIG. 35) are able to uptake the dye. […] The nature of this uptake at this time is not clear.

[5] = system: human renal cancer cells (SN12C); experiment: Detection of renal cancer cells in blood by NIR imaging and flow cytometry; assay type: cell-based; conditions: SN12C cells spiked into whole blood; 20 μM IR-783
Description: Citrated whole mouse blood samples were collected from same inbred athymic nude mice. A known number of human renal cancer cells (SN12C) were added into 3 ml whole mouse blood, and mixed gently with 20 μM IR-783 and incubated for 30 minutes at 37° C. The mononuclear cells and cancer cells were recovered by gradient centrifugation using Histopaque-1077 (Sigma, St. Louis, Mo.) and then diluted with 0.5 ml of 1% paraformaldehyde to inhibit further activation. A sample incubated with PBS served as negative isotype control. The isolated live cells were observed under a Leica TCS SP confocal microscope (Leica Microsystems, Heidelberg, Germany) and samples were excited with 670 nm. All samples were analyzed within 1 hrs of collection in a Becton Dickinson LSRII flow cytometer (Becton Dickinson Biosciences, San Jose, Calif.) with a red laser diode (640 nm) for excitation and cy7 detector for detection and with LYSIS II software.

[6] = system: TRAMP mouse prostate tumors; experiment: Detection of spontaneous prostate tumors in TRAMP transgenic mice; assay type: in vivo
Description: as §2

| Compound | uptake of dye in ARCaPM cells compared with normal P69 cells (ARCaPM cells [1]) | dye concentration needed to measure uptake into cancer cells in culture (ARCaPM cells [1]; time course and concentration dependence) | uptake of dye by normal human cells in culture (normal human cells) | subcellular localization of the dye (ARCaPM cells [2]) | early phase of uptake and retention completed (ARCaPM cells [1]; ARCaP cells) | late phase of uptake and retention completed (ARCaPM cells [1]; ARCaP cells) | detection of tumor (adenoma) (Apc^Min/+ mouse adenoma) | fewest cancer cells detected in whole blood (ARCaPM cells [3]; ARCaPM cells (10 to 1,000) added to 1 ml whole blood) | visualization / dye uptake of cancer cells mixed with human blood (ARCaPM cells [3]; ARCaPM cells, 20 μM IR-783, 30 minutes, 37° C.) | signal in mononuclear cells (ARCaPM cells [3]; human blood, 20 μM IR-783) | effect on body weights [4] | histopathology of vital organs at the time of sacrifice [4] | systemic toxicity ([4]; i.p. daily 0.375, 3.75 and 37.5 mg/kg, one month) | dye uptake in normal tissue (human bladder tumors; freshly harvested bladder specimens) | dye uptake by fat cells and tissues (human bladder tumors; freshly harvested specimens) | dye uptake in human bladder tumor tissue (human bladder tumors; freshly harvested specimens) | flow cytometry discrimination of stained cancer cells [5] | visualization of cancer cells in blood under NIR imaging [5] | detection of / dye uptake by TRAMP prostate tumors ([6]; TRAMP mice, IR-783 i.p. 10 nmol/20 g) | NIR fluorescence of tumor specimen after formalin fixation ([6]; TRAMP tumor, formalin solution for 3 weeks) |
| --- | --- | --- | --- | --- | --- | --- | --- | --- | --- | --- | --- | --- | --- | --- | --- | --- | --- | --- | --- | --- |
| CCCN1C(=CC=C2CCCC(C=CC3=[N+](CCC)c4ccccc4C3(C)C)=C2Cl)C(C)(C)c2ccccc21.[I-] [IR-780, 2-[2-[2-Chloro-3-[(1,3-dihydro-3,3-dimethyl-1-propyl-2H-indol-2-ylidene)ethylidene]-1-cyclohexen-1-yl]ethenyl]-3,3-dimethyl-1-propylindolium iodide] | big difference in IR-780 uptake by cancer cells and normal cells | 20 to 50 µM | unable to be taken up by normal cells; also recorded: very low uptake | co-localized with both mitochondria and lysosomes; also recorded: Co-localization of IR-780 and mitochondrial and lysosome were shown |  |  |  |  |  |  |  |  |  |  |  |  |  |  |  |  |
| 2-[2-[2-Chloro-3-[2-[1,3-dihydro-3,3-dimethyl-1-(4-sulfobutyl)-2H-indol-2-ylidene]-ethylidene]-1-cyclohexen-1-yl]-ethenyl]-3,3-dimethyl-1-(4-sulfobutyl)-3H-indolium [IR-783] | significant uptake |  | unable to be taken up by normal cells; also recorded: not to accumulate; also recorded: not taken up; also recorded: low uptake; also recorded: very low uptake | condense on mitochondrial and lysosomal organelles; also recorded: a large portion of the IR-783 was co-localized with these subcellular organelles | 12 min | 30 min | could detect tumor | 10 cancer cells per milliliter | clearly visualized; also recorded: Significant uptake and retention | hardly showed any signals | did not affect body weights | No abnormal histopathology | no systemic toxicity | to a much lesser extent by normal tissue | can also be taken up by fatty tissues; also recorded: also taken up by fat cells and tissues | can be taken up; also recorded: taken up by tumor tissues | totally identified from normal lymphocytes | clearly visualized | accumulate in prostate tumors and their metastases; also recorded: could detect tumor; also recorded: active uptake; also recorded: only tumor-positive signal | retain heptamethine cyanine NIR fluorescence; also recorded: strong NIR signal |
